Experimental data as given in patent publication US6998397B2, “Method for decreasing cholesterol level in blood” (Drebsk Comptech, Inc., priority 2004, dated 2006).

Assays:
[1] = prolonged and chronic experiments; cited from earlier work
Solubility in water = assay type: physicochemical
Description: Compositions useful for administration of EBI can be easily prepared. The simplest way is the use of water-based solutions. […] Preferable concentrations are laying in the range of 10^−5–10^−6% that corresponds to 0.1–0.01 mcg/ml. […] Other drinkable or eatable forms and non-aqueous carriers may also be used.

[2] = system: White rats fed with a standard food and drink diet; assay: Total blood serum cholesterol in rats on normal diet, 36-week intragastrular administration; assay type: in vivo, rat; conditions: 36 weeks
Description: White rats (mails) were fed with a standard food and drink diet. Experimental and control groups (7 animals in each) were formed by randomization using body mass as the principal feature. EBI was administered to the experimental animals intragastrularly as a water solution during 36 weeks. The control group received an equivalent amount of placebo. At the end of each experiment, animals were decapitated under light ether narcosis 18 hours after food withdrawal. Total cholesterol in blood serum was measured enzymatically.

mice = conditions: acute toxicity; cited from earlier work
rats = conditions: acute toxicity; cited from earlier work
[3] = system: rats fed with high-cholesterol diet; assay: Lipid metabolism and redox-vitamins in blood serum of rats under high-cholesterol diet, four-week administration; assay type: in vivo, rat; conditions: 4 weeks; for HDL / LDL / VLDL: blood serum lipoprotein fraction; for HDL / LDL / VLDL / Total cholesterol / Triglycerids / Vitamin A / Vitamin E: high-cholesterol diet; for Total cholesterol / Triglycerids / Vitamin A / Vitamin E: blood serum
Description: Forty white rats (mails) were divided for four groups (ten in each) by randomization using body mass as the principal feature. One group (control) was fed with a normal diet, and three others were fed with a high-cholesterol diet. The latter once received three times per week special food with the following additives: cholesterol (500 mg/kg), vitamin D3 (10000 ME/kg) and pork fat (1000 mg/kg). As a drink, these animals daily received a mixture (1:1) of glucose (5% water solution) and sodium chloride (2.5% water solution). Two groups of animals fed with the high-cholesterol diet received daily a water solution of EBI intragastrularly, and the control group received an equivalent amount of placebo. At the end of each experiment, animals were decapitated under light ether narcosis 18 hours after food withdrawal. Total cholesterol and triglycerides in blood serum were measured enzymatically. Lipoproteins were divided by electrophoresis in agar gel, then dyed with lipid-specific stuff and measured by a direct densitometry. Vitamins A and E were measured by fluorimetric analysis.

[4] = system: Volunteers with a high level of cholesterol; assay: Total cholesterol in volunteers with high cholesterol after four-week administration; assay type: in vivo, human
Description: Volunteers with a high level of cholesterol were selected for clinical study. During the experiment, each patient had their normal personal diet without any special limitations (fats, high-cholesterol food, etc.). All the patients received daily EBI (2.5 mcg) dissolved in ethanol (0.03 ml) and mixed with water (50 ml). Administering the EBI was not adjusted with the meal-receiving time.

[5] = 2 mcg/kg daily, listed as 24-epibrassinolide
[6] = 20 mcg/kg daily, listed as 24-epibrassinolide

## CC(C)[C@@H](C)[C@@H](O)[C@H](O)[C@@H](C)[C@H]1CC[C@H]2[C@@H]3COC(=O)[C@H]4C[C@H](O)[C@H](O)C[C@]4(C)[C@H]3CC[C@]12C [EBI, 24-epibrassinolide]
[1]
  postponed negative effects: no postponed negative effects
Solubility in water
  solubility in water: relatively small
[2]; 0.2 mcg/kg intragastrular
  total blood serum cholesterol: 62.17 ± 5.54 mg/deciliter
  total blood serum cholesterol, percentage change vs control: −9%
[2]; 2 mcg/kg intragastrular
  total blood serum cholesterol: 57.81 ± 6.34 mg/deciliter
  total blood serum cholesterol, percentage change vs control: −15%
[2]; 20 mcg/kg intragastrular
  total blood serum cholesterol: 54.25 ± 3.17 mg/deciliter
  total blood serum cholesterol, percentage change vs control: (−20%)
[2]; 200 mcg/kg intragastrular
  total blood serum cholesterol: 51.08 ± 5.15 mg/deciliter
  total blood serum cholesterol, percentage change vs control: (−25%)
[2]; normal cholesterol
  lower cholesterol (lowering depending on dose): 9–25%
mice
  LD50: more than 1000 mg/kg
rats
  LD50: more than 2000 mg/kg
[3]; 2 mcg/kg daily
  HDL, percentage related to the high-cholesterol diet: −1%
  LDL, percentage related to the high-cholesterol diet: 0%
  Total cholesterol, percentage related to the high-cholesterol diet: (−34%)
  Triglycerids, percentage related to the high-cholesterol diet: −58%
  VLDL, percentage related to the high-cholesterol diet: +9%
  Vitamin A, percentage related to the high-cholesterol diet: 16%
  Vitamin E, percentage related to the high-cholesterol diet: 53%
  reduction of plasma concentration of total cholesterol vs high-cholesterol diet without EBI: 34%
  reduction of plasma concentration of triglycerides vs high-cholesterol diet without EBI: 58%
  HDL: 19.45 ± 1.14%
  LDL: 75.24 ± 1.23%
  VLDL: 5.31 ± 0.24%
  Total cholesterol: 64.94 ± 5.15 mg/deciliter
  Triglycerids: 0.80 ± 0.09 mmol/L
  Vitamin A: 0.26 ± 0.02 mmol/L
  Vitamin E: 1.90 ± 0.14 mmol/L
[3]; [5]
  Vitamin A, percentage related to the high-cholesterol diet: +16%
  Vitamin E, percentage related to the high-cholesterol diet: (+53%)
[3]; 20 mcg/kg daily
  HDL, percentage related to the high-cholesterol diet: 47%
  LDL, percentage related to the high-cholesterol diet: (−11%)
  Total cholesterol, percentage related to the high-cholesterol diet: (−44%)
  Triglycerids, percentage related to the high-cholesterol diet: −68%
  VLDL, percentage related to the high-cholesterol diet: −11%
  Vitamin A, percentage related to the high-cholesterol diet: 30%
  Vitamin E, percentage related to the high-cholesterol diet: 51%
  reduction of low-density lipoprotein vs high-cholesterol diet only: 11%
  reduction of plasma concentration of total cholesterol vs high-cholesterol diet only: 44%
  reduction of plasma concentration of triglycerides vs high-cholesterol diet only: 68%
  HDL: 28.72 ± 1.22 %
  LDL: 66.97 ± 1.23 %
  VLDL: 4.33 ± 0.45%
  Total cholesterol: 55.04 ± 4.36 mg/deciliter
  Triglycerids: 0.60 ± 0.04 mmol/L
  Vitamin A: 0.29 ± 0.01 mmol/L
  Vitamin E: 1.88 ± 0.10 mmol/L
[3]; [6]
  HDL, percentage related to the high-cholesterol diet: (+47%)
  Vitamin A, percentage related to the high-cholesterol diet: (+30%)
  Vitamin E, percentage related to the high-cholesterol diet: (+51%)
[3]; 20 mcg/kg
  decrease of VLDL level: 11%
[3]; doses of 2 and 20 mcg/kg
  decrease of total cholesterol: 34–44%
  decrease of triglycerides: 58–68%
[4]; 6 volunteers with hypercholesterolemia, 2.5 mcg daily, 4 weeks
  plasma total cholesterol lower than the starting level, on average: 38%
[4]; humans, 2.5 mcg daily oral, start 287.1 ± 38.8
  Total Cholesterol in Plasma (after 4 weeks): 177.8 ± 12.3 mg/deciliter
[4]; humans, 2.5 mcg daily, 4 weeks, vs start
  Percentage Change in Cholesterol: −38%
